Measured values taken from US7928128B2, “Use of(R)-(−) -2-[5-(4-fluorophenyl)-3-pyridylmethylaminomethyl]-chromane and its physiologically acceptable salts” (Merck Patent Gesellschaft mit beschrankter Haftung, priority 2000, dated 2011).

Columns and labels:
[1] = test system: patients with cervical dystonia (spasmodic torticollis); test: Double-blind placebo-controlled study in cervical dystonia (TWSTRS); format: in vivo, human; details: 2.5 mg to 20 mg b.i.d.
[2] = test system: patients with Huntington's disease; test: Trial in patients with Huntington's disease; format: in vivo, human; details: add on, 2.5 to 20 mg b.i.d., versus placebo
Procedure: A typical trial to establish the effect of the compounds according to the invention on chorea, voluntary motor performance, and functional disability in patients with Huntington's disease encompasses 32 genetically diagnosed patients. […] The dose of blinded medication is titrated over a period of 3 weeks in a range from 2.5 to 20 mg b.i.d. Then the medication is held constant for 1 week. Assessments are performed in the week before and at the last day of the trial. Chorea is scored using the abnormal involuntary movement scale (AIMS, W. Guy, in: ECDEU assessment manual. Rockville Md.: US dept. of health, education and welfare, 1976: 534-537), the unified Huntington's disease rating scale (UHDRS, Huntington study group, 1996, Movement Disord, 11: 136-42), and judgement of video recordings. Voluntary motor performance is assessed using the UHDRS motor scale. Patients and their partners complete a questionnaire regarding functional disability.

[3] = test system: patients with advanced idiopathic Parkinson's disease complicated by "peak-dose" dyskinesia; test: Double-blind cross-over study, advanced idiopathic Parkinson's disease with peak-dose dyskinesia; format: in vivo, human; details: add on, 2.5 to 10 mg b.i.d., versus placebo; first hour in the on state
Description: A typical study to investigate the efficacy of the compounds according to the invention for adverse effects in Parkinson's disease is described in the following. 40 patients of either sex with advanced idiopathic Parkinson's disease complicated by “peak-dose” dyskinesia participate in a double-blind, cross-over study. The main inclusion criteria are Hoehn & Yahr stage ≧2.5 (lit.: Hoehn H. M. et al, Neurology 1967; 17: 427-442), aged 40-75 years, symptom duration of at least 5 years, and a I-dopa treatment duration of at least 3 years. […] The dose of blinded medication is titrated over a period of 3 weeks in a range from 2.5 to 10 mg b.i.d. Then the medication is kept constant for 1 week. Before the start of titration and at the end of the treatment period a I-dopa challenge is performed according to […] et al. (Movement Disord, 1999, 14 (Suppl. 1), 54-59) using video recording. The main outcome measure of the protocol is the mean score for dyskinesia during the first hour in the “on” state after I-dopa challenge. Therefore, the investigator assesses every minute the severity of dyskinesia (0=absent, 4=severe disabling involuntary movements) from 0 to 4 in seven parts of the body (upper and lower limbs, face, trunk, neck). After a 2-week wash-out period the two study arms are crossed over and the protocol is repeated.

MSA patients = test: Study in MSA patients (UPDRS); format: in vivo, human; details: add on, 2.5 to 20 mg b.i.d., versus placebo, cross-over
Procedure: A typical study to investigate the efficacy of the compounds according to the invention in MSA patients encompasses 30 patients of either sex with a symptom duration of at least 5 years and a significant reduction of central dopamine receptors in positron emission tomography (PET) scan. The study design is similar to that described above for Parkinson's disease. […] Before the start of titration and at the end of the treatment period a complete UPDRS assessment is performed in each patient (primary outcome measure). After a 2-week wash-out period the two study arms are crossed over and the protocol is repeated.

[4] = test system: schizophrenic inpatients on long-term stable antipsychotic treatment; test: Tardive dyskinesia study in schizophrenic inpatients (AIMS); format: in vivo, human; details: add on to antipsychotic treatment, 2.5 to 20 mg b.i.d., versus placebo period
Procedure: dyskinesia is a common adverse effect of long-term treatment with neuroleptics. A typical study to investigate the efficacy of the compounds according to the invention in tardive dyskinesia is described in the following. 32 schizophrenic (DSM-III-R) inpatients aged 25-60 years on long-term stable antipsychotic treatment (duration of at least 5 years) entered the study. […] The dose of blinded medication is titrated over a period of 3 weeks in a range from 2.5 to 20 mg b.i.d. Then the medication is maintained under double-blind conditions for 2 weeks. After a 2-week wash-out period, the test drugs are crossed over. Assessments of tardive dyskinesia by means of the Abnormal Involuntary Movement Scale (AIMS, see above) and of Parkinsonian extrapyramidal side effects (UPDRS, see above) are made pretreatment and posttreatment.

[5] = test system: patients with idiopathic Parkinson's disease; test: Double-blind study in idiopathic Parkinson's disease (UPDRS); format: in vivo, human; details: add on, 2.5 to 10 mg b.i.d., versus placebo
Description: A typical study to investigate the efficacy of the compounds according to the invention in the treatment of idiopathic Parkinson's disease is described in the following. 180 patients of either sex with idiopathic Parkinson's disease participate in a double-blind study. The main inclusion criteria are Hoehn & Yahr stage ≧2.0 (Hoehn H. M. et al, Neurology 1967; 17: 427-442), aged 50-80 years, symptom duration of at least 5 years. […] The dose of blinded medication is titrated over a period of 4 weeks in a range from 2.5 to 10 mg b.i.d. Then the medication is kept constant for 1 week. Before the start of titration, at the end of the treatment period and 2 weeks after the end of the tiration period an assessment is performed in each patients using the unified Parkinson's disease rating scale (UPDRS part I to V according to S. Fahn et al., in: Recent developments in Parkinson's disease, vol. 2, MacMillan health information 1987, 153-163). […] Furthermore, the efficacy to treat tremor is shown by the means of the UPDRS.

Parkinson patients = details: literature reports; cited from earlier work

SMILES | TWSTRS scores [1] | involuntary motor performance (chorea) ([2]; AIMS, UHDRS, video recordings) | voluntary motor performance ([2]; UHDRS motor scale) | mean dyskinesia scores after I-dopa challenge [3] | UPDRS (MSA patients) | AIMS scores [4] | UPDRS scores [5] | anti-dyskinetic effect in Parkinson patients (Parkinson patients)
Cl.Fc1ccc(-c2cncc(CNC[C@H]3CCc4ccccc4O3)c2)cc1 [(R)-(−)-2-[5-(4-fluorophenyl)-3-pyridylmethylaminomethyl]-chromane hydrochloride] | significant improvement | significant improvement | significant improvement | significant clinical improvement | significant clinical improvement | significantly lower than during placebo period | significant clinical improvement | –
O=C1CC2(CCCC2)CC(=O)N1CCCCN1CCN(c2ncccn2)CC1 [buspirone] | – | – | – | – | – | – | – | moderate anti-dyskinetic properties
